“Also recorded” adds a separate entry of the source. One block for each compound: values may come before it.
What was measured:
[1] = molecular target: T1, FabG (Pseudomonas aeruginosa, UniProt O54438); test: Back Assay: FabG-catalyzed oxidation of 3-OH decanoyl-NAC, NADPH fluorescence; type: biochemical
T1 sequence (O54438 1-247): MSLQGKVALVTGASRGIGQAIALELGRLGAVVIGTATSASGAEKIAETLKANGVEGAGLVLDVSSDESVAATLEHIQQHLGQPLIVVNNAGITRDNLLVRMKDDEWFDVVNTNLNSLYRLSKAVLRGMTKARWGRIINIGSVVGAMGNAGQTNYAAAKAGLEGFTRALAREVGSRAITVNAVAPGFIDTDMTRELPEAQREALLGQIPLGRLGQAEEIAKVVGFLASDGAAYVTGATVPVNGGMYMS

[2] = tested on: Staphylococcus aureus RN4220; test: Phenotypic growth assay S. aureus; type: cell-based
[3] = molecular target: T1, FabG; test: Forward Assay: FabG-catalyzed reduction of AcAcCoA, NADPH consumption at 340 nm
[4] = Lineweaver–Burk plot, 0-200 nM FG01

Km ([1]; 3-OH decanoyl-NAC, not determinable, response linear at least to 0.3 mM): > 300 µM
Compound: 3-hydroxydecanoyl-N-acetylcysteamine [3-OH decanoyl-NAC]

Compound: Cn1ncc2c(NCCO)nc(Nc3ccc(F)c(F)c3)nc21 [FG39, 2-[[6-(3,4-difluoroanilino)-1-methylpyrazolo[3,4-d]pyrimidin-4-yl]amino]ethanol]
inhibition of cell growth ([2]; S. aureus, 100 μM): 35%

Km ([1]; NADP+, in the presence of 0.3 mM 3-OH decanoyl-NAC): 290 µM
Compound: NC(=O)c1ccc[n+]([C@@H]2O[C@H](COP(=O)([O-])OP(=O)(O)OC[C@H]3O[C@@H](n4cnc5c(N)ncnc54)[C@H](OP(=O)(O)O)[C@@H]3O)[C@@H](O)[C@H]2O)c1 [NADP^+]

mode of inhibition with respect to AcAcCoA [3, 4]: mixed inhibition pattern
Compound: c1ccc(-c2nc(-n3cnnc3)c3ccccc3n2)cc1 [FG01, 2-phenyl-4-(1,2,4-triazol-4-yl)quinazoline]
mode of inhibition with respect to NADPH [3, 4]: noncompetitive mode of inhibition; also recorded: noncompetitive inhibition pattern

Compound: COc1ccccc1Nc1cccc2nccnc12 [FG48, N-(2-methoxyphenyl)quinoxalin-5-amine]
effect on growth of S. aureus ([2]; concentration/effect curve): completely inhibited the growth

Km ([3]; NADPH, in the presence of 4 mM AcAcCoA): 290 ± 30 µM
Compound: NC(=O)C1=CN([C@@H]2O[C@H](COP(=O)(O)OP(=O)(O)OC[C@H]3O[C@@H](n4cnc5c(N)ncnc54)[C@H](OP(=O)(O)O)[C@@H]3O)[C@@H](O)[C@H]2O)C=CC1 [NADPH, reference compound]
